The values below come from ChEMBL document CHEMBL1201862, “PubChem BioAssay data set” (2004).

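Grown in 96-well plates, cells were treated for 48 hours with each compound at five concentrations. Insufficient inhibition: endpoint recorded as highest concentration tested. GI50 marks 50% less growth.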 The source made the active and inactive calls. Rule as the data show it: active = GI50 up to about 1.1 µM and inactive = higher.

Some test systems named below: 786-0; ACHN; CAKI-1; COLO 205; HCT-116; HCT-15; HOP-62; K562; Malme-3M; NCI-H226; NCI-H23; NCI-H522; OVCAR-3; OVCAR-5; RPMI-8226; SF-268; SK-MEL-5; U-251; UO-31; NCI/ADR-RES.
Holding throughout (assay): NCI-60 cell line screen, 48 h

As for `O=C1C(Cl)C(c2ccc(Cl)cc2)N1n1cnc2ccccc2c1=O` (stereo unspecified), the GI50 with 786-0 was > 100 µM (inactive); in the test with ACHN, > 100 µM (inactive); in the test with CAKI-1 it was 40.8 µM (inactive); in the test with COLO 205, > 100 µM (inactive); in the test on HCT-116 it was > 100 µM (inactive); in the test with HCT-15 it was 92 µM. Moreover, the GI50 in the test on HOP-62 was > 100 µM (inactive); with K562 it was 35.6 µM (inactive); in the test on Malme-3M, > 100 µM (inactive); in the test on NCI-H226, > 100 µM (inactive); with NCI-H23, > 100 µM (inactive); with NCI-H522 it was 55.2 µM (inactive). Further, the GI50 is > 100 µM (inactive) in the test with OVCAR-3; > 100 µM (inactive) with OVCAR-5; 40.6 µM (inactive) in the test with RPMI-8226; > 100 µM (inactive) in the test with SF-268; > 100 µM (inactive) in the test with SK-MEL-5; > 100 µM (inactive) in the test with U-251. In addition, the GI50 in the test with UO-31 was 59.7 µM (inactive).

For `Cn1cc2ccccc2c1-c1nc(N)nc(F)n1`, the GI50 in the test with 786-0 is > 100 µM (inactive); with ACHN, > 100 µM (inactive); in the test on CAKI-1, > 100 µM (inactive); in the test with COLO 205 it was > 100 µM (inactive); with HCT-116 it was > 100 µM (inactive); in the test on HCT-15, over 100 µM. Moreover, the GI50 in the test with HOP-62 was > 100 µM (inactive); with K562, > 100 µM (inactive); in the test on Malme-3M it was 56.1 µM (inactive); with NCI-H226 it was 29.5 µM (inactive); in the test with NCI-H23, > 100 µM (inactive); in the test with NCI-H522, > 100 µM (inactive). Further, the GI50 in the test on OVCAR-3, in the test on OVCAR-5, in the test on RPMI-8226, in the test with SF-268, with SK-MEL-5 and in the test on U-251 was > 100 µM (inactive) in each case. For the same compound, the GI50 in the test with UO-31 was 67.9 µM (inactive).

As to `C=C1C(=O)C23C(O)C1CCC2C12CO[C@]3(O)[C@@H](O)C1C(C)(C)CCC2O` (stereo partly specified), the GI50 in the test with 786-0 was 12.2 µM (inactive); in the test on ACHN, 14.1 µM (inactive); in the test on CAKI-1, 15.2 µM (inactive); in the test on COLO 205 it was 2.89 µM (inactive); with HCT-116 it was 10.4 µM (inactive); in the test on HCT-15, 11.9 µM. For the same compound, the GI50 with HOP-62 is 24.4 µM (inactive); in the test on K562, 3.67 µM (inactive); in the test on Malme-3M, 5.92 µM (inactive); in the test on NCI-H226, 18.8 µM (inactive); with NCI-H23 it was 19.6 µM (inactive); in the test with NCI-H522, 0.798 µM (active). Besides, the GI50 in the test with OVCAR-3 was 16.4 µM (inactive); in the test on OVCAR-5, 20.2 µM (inactive); in the test on RPMI-8226, 3.75 µM (inactive); in the test on SF-268, 13.9 µM (inactive); in the test with SK-MEL-5, 22.4 µM (inactive); in the test with U-251, 17.4 µM (inactive). The GI50 in the test with UO-31 was 17.1 µM (inactive).

For the compound `CCOCN/C(N)=N\C#N`, the GI50 is 23.9 µM (inactive) in the test on 786-0; > 100 µM (inactive) in the test with ACHN; > 100 µM (inactive) in the test on CAKI-1; > 100 µM (inactive) with COLO 205; > 100 µM (inactive) in the test with HCT-116; 20.5 µM in the test with HCT-15. The GI50 is > 100 µM (inactive) in the test on HOP-62; 66.1 µM (inactive) with K562; > 100 µM (inactive) with Malme-3M; > 100 µM (inactive) with NCI-H226; > 100 µM (inactive) in the test on NCI-H23; > 100 µM (inactive) in the test on NCI-H522. For the same compound, the GI50 in the test on OVCAR-3, in the test on OVCAR-5, in the test on RPMI-8226, with SF-268, with SK-MEL-5 and in the test with U-251 was > 100 µM (inactive) in each case. In addition, the GI50 with UO-31 was > 100 µM (inactive).

As to `O=C(CCc1nnc2s/c(=C\c3ccc4c(c3)OCO4)c(=O)n12)Nc1cc(Cl)ccc1Cl`, the GI50 in the test with 786-0 is > 100 µM (inactive); in the test on ACHN, > 100 µM (inactive); in the test with CAKI-1, > 100 µM (inactive); with COLO 205, > 74.1 µM (inactive); with HCT-116, > 50.9 µM (inactive); with HCT-15, over 39.8 µM. Besides, the GI50 with HOP-62, in the test on K562, in the test on Malme-3M, in the test with NCI-H226, in the test on NCI-H23 and in the test with NCI-H522 was > 100 µM (inactive) each time. Moreover, the GI50 with OVCAR-3 was > 100 µM (inactive); in the test on OVCAR-5, > 100 µM (inactive); in the test on RPMI-8226, > 78.5 µM (inactive); in the test on SF-268, > 100 µM (inactive); with SK-MEL-5, > 100 µM (inactive); in the test on U-251, > 100 µM (inactive). In the test with UO-31, the GI50 was > 100 µM (inactive).

For the compound `O=C1Nc2c(Cl)cc(Cl)cc2/C1=N/N=C/c1ccccc1O`, the GI50 in the test with 786-0 was 19.4 µM (inactive); with ACHN, 29.2 µM (inactive); with CAKI-1, 19.4 µM (inactive); with COLO 205 it was 16.4 µM (inactive); in the test with HCT-116, 17.5 µM (inactive); with HCT-15 it was 17.8 µM. Besides, the GI50 was 17.2 µM (inactive) in the test on HOP-62; 21.2 µM (inactive) in the test on K562; 27.9 µM (inactive) in the test on Malme-3M; 27.2 µM (inactive) in the test on NCI-H226; 19.5 µM (inactive) in the test on NCI-H23; 19.5 µM (inactive) in the test on NCI/ADR-RES. Besides, the GI50 in the test on OVCAR-3 is 16.3 µM (inactive); in the test on OVCAR-5, 21.5 µM (inactive); in the test on SK-MEL-5, 20.4 µM (inactive); with U-251, 17.2 µM (inactive); with UO-31 it was 27.6 µM (inactive).

As for `CC(C)Oc1cccc(N2C(Nc3ccccc3)=Nc3ccncc3S2(=O)=O)c1`, the GI50 in the test on 786-0 is 17.7 µM (inactive); in the test with ACHN, 26.5 µM (inactive); in the test with CAKI-1, 26 µM (inactive); in the test with COLO 205, 13.1 µM (inactive); with HCT-116 it was 20.4 µM (inactive); with HCT-15, 20.2 µM. Also, the GI50 was 32.7 µM (inactive) with HOP-62; 76 µM (inactive) with K562; 23.2 µM (inactive) in the test on Malme-3M; 24.1 µM (inactive) with NCI-H226; 32.9 µM (inactive) in the test on NCI-H23; 30.6 µM (inactive) with NCI-H522. Further, the GI50 with NCI/ADR-RES was 19.3 µM (inactive); in the test on OVCAR-3, 18.4 µM (inactive); in the test with OVCAR-5 it was 48.1 µM (inactive); with SF-268, 38.9 µM (inactive); in the test with SK-MEL-5, 4.12 µM (inactive); in the test with U-251 it was 7.67 µM (inactive). Moreover, in the test with UO-31, the GI50 was 19.1 µM (inactive).

`CS(=O)(=O)OCCN(CCOS(C)(=O)=O)c1ccc(/C=N/N=c2/nc[nH]c3nc[nH]c23)cc1`: the GI50 is 16.3 µM (inactive) in the test with 786-0; 17.4 µM (inactive) with ACHN; 14.2 µM (inactive) in the test on CAKI-1; 17.2 µM (inactive) in the test with COLO 205; 17.3 µM (inactive) in the test with HCT-116; 31 µM with HCT-15. Besides, the GI50 in the test on HOP-62 was 28.2 µM (inactive); with K562, 24.9 µM (inactive); in the test with Malme-3M it was 27 µM (inactive); in the test with NCI-H226, 19.3 µM (inactive); in the test on NCI-H23, 14.8 µM (inactive); with NCI-H522, 12.3 µM (inactive). Moreover, the GI50 in the test with OVCAR-3 is 13.4 µM (inactive); with OVCAR-5, 20.6 µM (inactive); in the test with RPMI-8226, 15.3 µM (inactive); with SF-268, 12.9 µM (inactive); in the test on SK-MEL-5, 15.9 µM (inactive); in the test on U-251, 16.3 µM (inactive). The GI50 in the test with UO-31 was 28.3 µM (inactive).

For the compound `C#CC1(O)CCC2[C@@H]3CCc4cc(Oc5nc(F)nc(-c6c7ccccc7cn6C)n5)ccc4C3CC[C@@]21C` (stereo partly specified), the GI50 is > 100 µM (inactive) in the test on 786-0; > 100 µM (inactive) in the test on ACHN; > 100 µM (inactive) in the test with CAKI-1; > 78.9 µM (inactive) in the test with COLO 205; > 100 µM (inactive) in the test on HCT-116; over 72.3 µM in the test on HCT-15. In addition, the GI50 in the test on HOP-62 was > 100 µM (inactive); in the test on K562, > 67 µM (inactive); with Malme-3M it was > 100 µM (inactive); in the test on NCI-H226 it was > 100 µM (inactive); in the test with NCI-H23, > 100 µM (inactive); in the test with NCI-H522, 89.3 µM (inactive). In addition, the GI50 in the test on OVCAR-3 was > 100 µM (inactive); in the test on OVCAR-5, > 100 µM (inactive); with RPMI-8226, > 47.4 µM (inactive); in the test with SF-268 it was > 88.1 µM (inactive); in the test on U-251 it was > 100 µM (inactive); with UO-31, > 62.1 µM (inactive).

Consider `CCOc1ccc(NC(=O)C(=O)C(C(=O)c2ccc3ccccc3c2)C2OC(=O)c3ccccc32)cc1` (stereo unspecified), for which the GI50 is 6.47 µM (inactive) in the test on 786-0; 33.4 µM (inactive) in the test with ACHN; 23.8 µM (inactive) in the test on CAKI-1; 19.1 µM (inactive) with COLO 205; 15.7 µM (inactive) in the test on HCT-116; 13.7 µM with HCT-15. The GI50 with HOP-62 is 17.5 µM (inactive); in the test with K562, 20.5 µM (inactive); with Malme-3M it was 10.9 µM (inactive); in the test with NCI-H226, 3.31 µM (inactive); with NCI-H23, 11.7 µM (inactive); in the test with NCI-H522, 11.8 µM (inactive). Also, the GI50 was 16.2 µM (inactive) in the test with OVCAR-3; 30.9 µM (inactive) in the test on OVCAR-5; 4.8 µM (inactive) with RPMI-8226; 13.3 µM (inactive) in the test on SF-268; 14.2 µM (inactive) in the test with SK-MEL-5; 5.04 µM (inactive) with U-251. In the test on UO-31, the GI50 is 15.7 µM (inactive).

As for `COc1cccc2c1[C@]1(O)C(O)CCCC21` (stereo partly specified), the GI50 was > 100 µM (inactive) in the test on 786-0; > 100 µM (inactive) with ACHN; > 100 µM (inactive) with CAKI-1; > 100 µM (inactive) with COLO 205; > 100 µM (inactive) with HCT-116; over 100 µM in the test on HCT-15. Moreover, the GI50 in the test with HOP-62, in the test on K562, in the test with Malme-3M, in the test on NCI-H226, in the test with NCI-H23 and in the test on NCI-H522 was > 100 µM (inactive) throughout. For the same compound, the GI50 in the test with OVCAR-3, with OVCAR-5, in the test on RPMI-8226, with SF-268, in the test on SK-MEL-5 and with U-251 was > 100 µM (inactive) each time. Moreover, in the test with UO-31, the GI50 was > 100 µM (inactive).
